From patent US12516092B2, “Peptide ligands of the GDNF family receptor A-like (GFRAL) receptor” (THE TRUSTEES OF THE UNIVERSITY OF PENNSYLVANIA, priority 2019, dated 2026)
Non-standard residues stand in square brackets, D forms with d. Residues, ends and D or L forms follow the SMILES beside them. No end group written: not given here. Lys(N3) = [N-]=[N+]=NCCCC[C@H](N)C(=O)O

Tests used:
[1] = in vitro PK study in rat microsomes; type: in vitro ADME
Description: FIG. 8 is a graph illustrating the results from in vitro PK study of GFRAL receptor antagonist in rat microsomes. […] Reaction velocity (V) was calculated to be 511 uL/1 mg. Intrinsic clearance (Cl-int) was determined to be 339 uL/min/mg protein.

human GFRAL receptor = molecular target: T1, human GFRAL receptor (Homo sapiens, UniProt Q6UXV0); test: Cy5-conjugate binding to human GFRAL receptor in vitro, tracked with anti-Cy5 antibody; conditions: Cy5-conjugate exposed to human GFRAL receptor in vitro
T1 sequence (Q6UXV0 19-394): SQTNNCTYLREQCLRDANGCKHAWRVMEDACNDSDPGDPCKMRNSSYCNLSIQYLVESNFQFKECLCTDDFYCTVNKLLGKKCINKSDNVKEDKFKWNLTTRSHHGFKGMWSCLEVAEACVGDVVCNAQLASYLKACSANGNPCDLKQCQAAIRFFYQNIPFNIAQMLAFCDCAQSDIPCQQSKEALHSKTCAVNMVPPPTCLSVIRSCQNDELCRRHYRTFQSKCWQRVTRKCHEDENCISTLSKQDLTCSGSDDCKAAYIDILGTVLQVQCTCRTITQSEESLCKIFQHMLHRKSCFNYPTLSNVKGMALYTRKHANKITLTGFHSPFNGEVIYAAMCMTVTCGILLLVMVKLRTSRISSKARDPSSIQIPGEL
Description: A Cy5-conjugate of GFRAL receptor antagonist was synthesized and exposed to the human GFRAL receptor in vitro and tracked for binding using an anti-Cy5 antibody.

male rats = test: Ejaculation studies in rats; type: in vivo, rat; conditions: video recorded for 3 h
Description: Rats were video recorded for 3 h and the number of spontaneous ejaculations were analyzed by an observer blinded to treatment groups. Without wishing to be bound by theory, GFANT01 may be an agonist of the GFRAL receptor.

rats [2] = test: Nausea/malaise (illness-like behaviors) studies in rats; type: in vivo, rat; conditions: over the course of 24 hours
Description: (§1) Five potential ligands (GFANT01-GFANT05, SEQ. ID NOs: 1-5, wherein the K* in each peptide is Lysine(N3)) were synthesized. The effects of each of the novel ligands were tested for their ability to alter nausea in rats over the course of 24 hours. […] Animals were given either MIC-1 (30 pmol), the endogenous ligand of GFRAL that suppresses appetites, GFANT05 (300 pmol), or a combination of both and their food intake was monitored for up to 24 hrs (FIG. 5A). […] In addition, kaolin intake, a reliable measure of nausea in rats, was reduced in animals receiving GFANT05 compared to vehicle alone and that of a known nausea-inducing compound (MIC-1) (FIG. 5B). […] Analysis of emetic episodes were measured by an observer blinded to treatment groups.

rats [3] = test: food intake study; type: in vivo, rat
Description: (§2) FIG. 5A is a graph of a food intake study performed to evaluate the efficacy of unconjugated GFANT05 peptide (TK*[…]; SEQ ID NO: 5, wherein K* is K azido) to reduce nausea.
as §1

rats [4] = test: kaolin intake study; type: in vivo, rat; conditions: compared to vehicle alone and MIC-1
Description: as §2, §1

GFRAL receptor = test: co-localization with the GFRAL receptor in the brainstem (image)
Description: This technology provides a new route to treat cachexia and chemotherapy induced nausea/vomiting by uniquely blocking the GDF15-GFRAL signaling in the brainstem.

[5] = molecular target: T2, recombinant human GFRα-like His-tag receptor (Homo sapiens, UniProt Q6UXV0); test: ELISA binding assay of GDF15 to GFRAL receptor; conditions: GDF15 run at 100 ng/mL to 0.005 ng/mL; receptor 0.1 μg/mL on nickel coated plate
T2 construct: purchased R&D 9647-GR-050
T2 sequence (Q6UXV0 19-394): T1 sequence (Q6UXV0 19-394)
Description: To validate binding of the synthesized peptides to the GFRAL receptor, an ELISA assay was developed to determine the binding affinity of the peptides for their receptor. The primary antibody (Abcam ab206414) was diluted to 1 μg/mL. The secondary antibody was diluted by placing 5 μL into 10 mL assay buffer. GDF15 was run at concentrations of 100 ng/mL to 0.005 ng/mL. The recombinant human GFRα-like His-tag receptor (R&D 9647-GR-050) was added to the Pierce™ nickel coated plate (ThermoFisher Scientific 15442) at 0.1 μg/mL in a total volume of 100 μL.

For `CC[C@H](C)[C@H](NC(=O)[C@H](CC(C)C)NC(=O)[C@H](CCC(=O)O)NC(=O)[C@H](CCC(=O)O)NC(=O)[C@H](CCCCN=[N+]=[N-])NC(=O)[C@@H](N)[C@@H](C)O)C(=O)N[C@@H](Cc1c[nH]cn1)C(=O)N[C@@H](C)C(=O)N[C@@H](Cc1c[nH]cn1)C(=O)N[C@@H](C)C(=O)N[C@@H](CC(=O)O)C(=O)N1CCC[C@H]1C(=O)N[C@@H](CCSC)C(=O)N[C@H](C(=O)N[C@@H](CC(C)C)C(=O)N[C@H](C(=O)N[C@@H](CCC(N)=O)C(=O)N[C@@H](CCCCN)C(=O)N[C@H](C(=O)N[C@@H](CC(=O)O)C(=O)N[C@H](C(=O)NCC(=O)N[C@H](C(=O)N[C@@H](CO)C(=O)N[C@@H](CC(C)C)C(=O)N[C@@H](CCC(N)=O)C(=O)N[C@H](C(=O)N[C@@H](Cc1ccc(O)cc1)C(=O)N[C@@H](CC(=O)O)C(=O)O)[C@@H](C)O)C(C)C)[C@@H](C)O)[C@@H](C)O)[C@@H](C)CC)C(C)C` [GFRAL receptor antagonist] (H-T[Lys(N3)]EELIHAHADPMVLIQKTDTGVSLQTYD-OH; N-terminus and C-terminus assumed), the “Reaction velocity (V)” value [1] was 511 uL/1 mg, the half-life [1] was 1.74 h and the microsomal CLint ([1]; read-out: Intrinsic clearance (Cl-int)) was 339 µL/min/mg.
With “Cy5-conjugate of GFRAL receptor antagonist: Cy5-conjugate of GFRAL receptor antagonist, synthesized for tracking binding with an anti-Cy5 antibody (T[Lys(N3)]EELIHAHADPMVLIQKTDTGVSLQTYD; also: Cy5 conjugate, site not given here)” the “binding to the GFRAL receptor” value (human GFRAL receptor) was “confirming GFRAL receptor antagonist binding to the GFRAL receptor”.
In the case of “GFANT01: engineered peptide EDDVSFQK*LDDNVRYHTLRK; may be an agonist of the GFRAL receptor (EDDVSFQ[Lys(N3)]LDDNVRYHTLRK; not fully specified; printed as EDDVSFQK*LDDNVRYHTLRK)”, the spontaneous ejaculation (male rats) is reported as “result in spontaneous ejaculation”.
With “GFANT05: engineered peptide TK*EELIHAHADPMVLIQKTDTGVSLQTYD; GFRAL receptor antagonist (T[Lys(N3)]EELIHAHADPMVLIQKTDTGVSLQTYD)” the “effect on nausea/illness-like behaviors” value (rats [2]) was “significant effect”, the overall food consumption (rats [3]; GFANT05 (300 pmol) added to MIC-1 (30 pmol), compared with MIC-1) was “did not increase overall food consumption over MIC-1” and the food intake (rats [3]; GFANT05 (300 pmol) alone, 24 hrs post-administration, vs untreated control) was “ate the same amount of food as untreated control animals”. The kaolin intake (rats [4]) was “reduced” and the “co-localization with the GFRAL receptor” value (GFRAL receptor) was “co-localizing with the GFRAL receptor in the brainstem”.
In the case of “growth and differentiation factor 15 [GDF15]”, the KD [5] is reported as 1.03 ng/mL and the spontaneous ejaculation (male rats) is reported as “the same effect”.
